Measured values taken from US20240042019A1, “OPTIMIZED TLR7 LIGANDS AND USES THEREOF” (Genentech, Inc., priority 2021, published 2024).
Read-outs that look alike come from different tables or passages of the source. Oligonucleotides are written 5' to 3', each unit as a sugar letter and its base; * is a phosphorothioate linkage, no mark a phosphodiester; rarer units and linkages stand in square brackets, end groups in braces. Plain capitals give the bases only. m = 2'-O-methyl; r = 2'-OH (RNA); f = 2'-fluoro

What was measured:
Type in all cases: cell-based
TLR7 [1] = biological target: T1, TLR7 (Homo sapiens, UniProt Q9NYK1); assay: PBMC stimulation with p-L-arginine-complexed RNA ligands, IFN-α ELISA; details: human PBMCs; for IFN-α secretion (TLR7 activity): p-L-arginine delivery, 16 hours, ELISA (FIG. 7); for IFN-α secretion when co-delivered with 2′3′ cGMP: p-L-arginine complexes with 2′3′ cyclic GMP 5 μg/ml, ORN 0.6 μg/ml (FIG. 12)
T1 construct: Peripheral blood mononuclear cells (PBMCs) were obtained from buffy coats from healthy adult donors; endogenous in cells; host or cells: primary human PBMCs from healthy donor buffy coats (TLR7 expressed by pDCs)
T1 sequence (Q9NYK1 27-1049): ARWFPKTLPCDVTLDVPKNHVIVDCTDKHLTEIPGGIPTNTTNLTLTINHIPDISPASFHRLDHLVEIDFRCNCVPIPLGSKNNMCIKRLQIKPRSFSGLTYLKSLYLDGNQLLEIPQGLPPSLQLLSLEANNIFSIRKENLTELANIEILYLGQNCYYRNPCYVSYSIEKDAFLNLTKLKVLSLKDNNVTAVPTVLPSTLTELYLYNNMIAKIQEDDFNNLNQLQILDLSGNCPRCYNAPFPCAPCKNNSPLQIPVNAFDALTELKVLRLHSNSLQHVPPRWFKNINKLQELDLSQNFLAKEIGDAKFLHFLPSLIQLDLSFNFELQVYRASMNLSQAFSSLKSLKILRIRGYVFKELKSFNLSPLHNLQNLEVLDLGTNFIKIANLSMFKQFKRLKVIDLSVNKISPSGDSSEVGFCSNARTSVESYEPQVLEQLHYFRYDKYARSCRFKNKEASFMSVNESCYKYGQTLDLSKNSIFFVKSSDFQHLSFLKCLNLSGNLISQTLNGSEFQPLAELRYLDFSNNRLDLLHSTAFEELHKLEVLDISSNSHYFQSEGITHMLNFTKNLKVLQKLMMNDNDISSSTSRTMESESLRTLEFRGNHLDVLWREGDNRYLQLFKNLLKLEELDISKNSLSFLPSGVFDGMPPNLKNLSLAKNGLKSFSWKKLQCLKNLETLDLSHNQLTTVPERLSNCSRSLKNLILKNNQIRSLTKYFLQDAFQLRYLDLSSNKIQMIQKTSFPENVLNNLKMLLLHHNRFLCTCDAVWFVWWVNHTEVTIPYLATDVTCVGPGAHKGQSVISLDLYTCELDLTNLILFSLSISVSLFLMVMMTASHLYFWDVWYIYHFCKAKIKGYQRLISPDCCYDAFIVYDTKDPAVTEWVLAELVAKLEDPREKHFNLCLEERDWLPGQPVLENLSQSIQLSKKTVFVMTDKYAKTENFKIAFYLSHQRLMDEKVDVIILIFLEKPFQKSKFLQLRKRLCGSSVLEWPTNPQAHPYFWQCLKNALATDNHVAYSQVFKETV
Experimental: (§1) Peripheral blood mononuclear cells (PBMCs) were obtained from buffy coats from healthy adult donors. Buffy coat samples were first diluted with an equal volume of phosphate-buffered saline (PBS). Next, PBMCs were isolated via density gradient centrifugation with Lymphoprep density gradient media ([…] Technologies) and SepMate-50 tubes ([…] Technologies). Samples were centrifuged at 1000 g for 15 minutes. After centrifugation, the upper layers were collected by pouring into a new tube, diluted with PBS, and centrifuged at 450×g for 5 minutes. To lyse red blood cells, cell pellets were resuspended with 10 mL Ammonium-Chloride-Potassium (ACK) Lysis Buffer and incubated for 8 minutes at room temperature. After lysis, cells were washed with PBS and passed through two 70 μm cell strainers. Viable cell counts were determined with a Vi-CELL cell counter (Beckman Coulter). […] Guanosine was added between about 20 and about 30 minutes before the addition of poly-[…])-complexed RNA. […] After mixing by pipetting up and down, the reaction was incubated for 10 minutes, pipetted up and down again, and then added to the cells. In some experiments, RNA ligands were used at a final concentration of 0.6 μg/ml. Where indicated as “+2'3' cGMP”, 2'3' cyclic GMP purchased from eMolecules was complexed together with the RNA ligands. The final concentration of 2'3' cyclic GMP was 5 μg/ml. p-L-arginine was adjusted accordingly to keep the mass ratio of nucleic acid:p-L-arginine constant. Cell culture supernatants were collected 15-18 hours after stimulation and stored at -80° C. Cytokines in cell culture supernatants were detected with the BD OptEIA human TNF ELISA Set (BD Biosciences), and either Invitrogen IFN alpha Human Matched Antibody Pair kit (Thermo Fisher Scientific) or Human IFN Alpha Multi-Subtype ELISA Kit (PBL Assay Science). To test the effects of the RNA ligands described in Example 1 on TLR7 and TLR8 activation, PBMCs were stimulated with the RNA ligands using p-L-arginine complex delivery, delivery with DOTAP, or delivery without a carrier. Activity of TLR7 and TLR8 was assessed based on measurements of IFN-α or TNF-α by enzyme-linked immunosorbent assays (ELISA). In this setting, as depicted in FIG. 6, IFN-α induced by small RNAs is derived from TLR7 expressed by pDCs, or from RIG-I expressed by monocytes. In contrast, TNF-α secretion is derived from monocytes and serves as an indication of TLR8 activation. As shown in this figure, the p-L-arginine delivery restricts most of the activation to TLRs. First, the effects of the RNA ligands on TLR7 and TLR8 activation using p-L-arginine complex delivery were tested.

TLR7 [2] = biological target: T1, TLR7; assay: PBMC stimulation with DOTAP-complexed RNA ligands, IFN-α ELISA
TLR8 [3] = biological target: T2, TLR8 (Homo sapiens, UniProt Q9NR97); assay: PBMC stimulation with DOTAP-complexed RNA ligands, TNF-α ELISA
T2 construct: Peripheral blood mononuclear cells (PBMCs) were obtained from buffy coats from healthy adult donors; endogenous in cells; host or cells: primary human PBMCs from healthy donor buffy coats (TLR8 in monocytes)
T2 sequence (Q9NR97 27-1041): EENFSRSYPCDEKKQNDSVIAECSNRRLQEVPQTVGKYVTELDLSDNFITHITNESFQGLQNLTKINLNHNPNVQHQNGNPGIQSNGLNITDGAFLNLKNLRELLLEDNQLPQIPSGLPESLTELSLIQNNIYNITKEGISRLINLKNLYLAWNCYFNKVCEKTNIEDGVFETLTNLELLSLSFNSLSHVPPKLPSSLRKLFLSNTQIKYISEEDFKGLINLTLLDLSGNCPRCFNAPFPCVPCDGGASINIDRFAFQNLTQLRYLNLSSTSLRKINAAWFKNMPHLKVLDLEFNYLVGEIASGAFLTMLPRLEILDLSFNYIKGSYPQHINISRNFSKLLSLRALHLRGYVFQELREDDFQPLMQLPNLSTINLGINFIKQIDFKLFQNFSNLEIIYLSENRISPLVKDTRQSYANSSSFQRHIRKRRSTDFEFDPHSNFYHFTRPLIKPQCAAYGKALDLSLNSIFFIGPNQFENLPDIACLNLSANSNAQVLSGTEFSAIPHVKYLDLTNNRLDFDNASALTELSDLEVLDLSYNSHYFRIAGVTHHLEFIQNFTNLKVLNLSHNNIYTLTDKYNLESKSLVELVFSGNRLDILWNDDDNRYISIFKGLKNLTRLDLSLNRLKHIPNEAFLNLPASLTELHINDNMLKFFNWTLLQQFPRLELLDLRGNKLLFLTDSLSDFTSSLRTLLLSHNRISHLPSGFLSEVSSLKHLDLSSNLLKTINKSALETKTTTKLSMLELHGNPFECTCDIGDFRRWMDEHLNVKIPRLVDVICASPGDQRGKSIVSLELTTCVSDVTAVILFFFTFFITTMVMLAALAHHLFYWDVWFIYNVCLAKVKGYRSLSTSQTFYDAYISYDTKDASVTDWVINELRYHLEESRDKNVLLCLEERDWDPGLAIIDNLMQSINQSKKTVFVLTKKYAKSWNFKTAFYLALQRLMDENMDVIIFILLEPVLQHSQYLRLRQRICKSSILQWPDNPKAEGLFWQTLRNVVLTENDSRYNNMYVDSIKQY

TLR8 [4] = biological target: T2, TLR8; assay: PBMC stimulation with p-L-arginine-complexed RNA ligands, TNF-α ELISA; details: human PBMCs, p-L-arginine complexes with 2′3′ cyclic GMP 5 μg/ml, ORN 0.6 μg/ml (FIG. 12)
Experimental: as §1

[5] = human PBMCs, DOTAP delivery, 0.6 μg/ml and 2 μg/ml, 16 hours (FIGS. 10A-10B)
[6] = human PBMCs, DOTAP delivery, 2 μg/ml (FIG. 10B)

C*G*G*C*U*C*G*G*C*A*G*A*A*G*C*C*G*G*G*C*C (rC*rG*rG*rC*rU*rC*rG*rG*rC*rA*rG*rA*rA*rG*rC*rC*rG*rG*rG*rC*rC) [ORN7024]
IFN-α secretion (TLR7 activity) (TLR7 [1]): reduced activity

C-A-G-A-C-C*U*U*C-C-A-G-A-C-C*U*U*C (CAGACCUUCCAGACCUUC; linkages o5 s3 o6 s3 (s phosphorothioate, o phosphodiester), sugars by position not given here) [ORN7004]
IFN-α secretion (TLR7 activity) (TLR7 [2]): mildly increased TLR7 activity
TNF-α secretion (TLR8 activity) (TLR8 [3]): markedly increased TLR8 activity

C-A-G-A-C-C-U-U-C-C-A-G-A-C-C-U-U-C (CAGACCUUCCAGACCUUC; unmodified RNA) [ORN7001, de novo designed ligand]
IFN-α secretion (TLR7 activity) (TLR7 [1]): no or only minor IFN-α secretion
IFN-α secretion (TLR7 activity) (TLR7 [2]; [5]): induced TLR7 and TLR8 activity
TNF-α secretion (TLR8 activity) (TLR8 [3]; [5]): induced TLR7 and TLR8 activity

C-C-G-A-G-C-C-G-C*U*U*U*U*C-C-C (rCrCrGrArGrCrCrGrC*rU*rU*rU*rU*rCrCrC) [ORN7022, phosphodiester-linked version of ORN7013]
IFN-α secretion (TLR7 activity) (TLR7 [2]; [5]): activated both TLR7 and TLR8
TNF-α secretion (TLR8 activity) (TLR8 [3]; [5]): activated both TLR7 and TLR8

C-C-G-A-G-C-C-G-C-fU-U*fU-U*C-C-C (rCrCrGrArGrCrCrGrCfUrU*fUrU*rCrCrC) [ORN7019, 2′-fluoro-modified and phosphodiester-linked version of ORN7013]
IFN-α secretion (TLR7 activity) (TLR7 [2]; human PBMCs, DOTAP delivery, 0.6 μg/ml (FIG. 10A)): selective TLR7 activation
TNF-α secretion (TLR8 activity) (TLR8 [3]; [6]): also had TLR8-activity

C-C-fU-U-C-fU-U-C-fU-U-C-fU-U-C-fU-U-C-fU-U-C (rCrCfUrUrCfUrUrCfUrUrCfUrUrCfUrUrCfUrUrC) [ORN7011, 2′-fluoro-modified version of ORN7009]
IFN-α secretion when co-delivered with 2′3′ cGMP (TLR7 [1]): robust IFN-a induction
IFN-α secretion (TLR7 activity) (TLR7 [2]; [6]): had TLR7-activity
TNF-α secretion when co-delivered with 2′3′ cyclic GMP (TLR8 [4]): little to no measurable TNF-α
TNF-α secretion (TLR8 activity) (TLR8 [3]; [6]): without TLR8 activity

C-C-mU-U-C-mU-U-C-mU-U-C-mU-U-C-mU-U-C-mU-U-C (rCrCmUrUrCmUrUrCmUrUrCmUrUrCmUrUrCmUrUrC) [ORN7010, 2′O-methyl-modified version of ORN7009]
IFN-α secretion when co-delivered with 2′3′ cGMP (TLR7 [1]): robust IFN-a induction
IFN-α secretion (TLR7 activity) (TLR7 [2]; [5]): reduced both TLR8 and TLR7 activation
TNF-α secretion when co-delivered with 2′3′ cyclic GMP (TLR8 [4]): little to no measurable TNF-α
TNF-α secretion (TLR8 activity) (TLR8 [3]; [5]): reduced both TLR8 and TLR7 activation

C-G-G-fC-U-C-G-G-C-A-G-A-A-G-C-C-G-G-G-C-C (rCrGrGfCrUrCrGrGrCrArGrArArGrCrCrGrGrGrCrC; hairpin) [ORN7023F, 2′-fluoro-C-modified ORN7023]
TLR7 selectivity (IFN-α versus TNF-α secretion) (TLR7 [1]; p-L-arginine delivery (FIG. 7)): maintained TLR7 selectivity
IFN-α secretion (TLR7 activity) (TLR7 [1]): further increasing the activity

U*C*U*C*U*C*U*C*U*C*U*C*U*C*U*C*U*C*U*C (rU*rC*rU*rC*rU*rC*rU*rC*rU*rC*rU*rC*rU*rC*rU*rC*rU*rC*rU*rC) [ORN7008]
TNF-α secretion (TLR8 activity) (TLR8 [3]; [5]): further increased TLR8 activation

UCUCUCUCUCUCUCUCUCUC (UCUCUCUCUCUCUCUCUCUC; unmodified RNA) [ORN7005, derived from pU1C of Zhang et al., 2018, reference compound]
IFN-α response to RNA ligand alone (no 2′3′ cGMP) (TLR7 [1]; p-L-arginine alone, ORN 0.6 μg/ml, one donor (FIGS. 12, 16A-16B)): unexpectedly high IFN-α response
IFN-α secretion (TLR7 activity) (TLR7 [1]): no or only minor IFN-α secretion
IFN-α secretion (TLR7 activity) (TLR7 [2]; [5]): activated TLR8 rather than TLR7
TNF-α secretion (TLR8 activity) (TLR8 [3]; [5]): activated TLR8

U-fC-U-fC-U-fC-U-fC-U-fC-U-fC-U-fC-U-fC-U-fC-U-C (rUfCrUfCrUfCrUfCrUfCrUfCrUfCrUfCrUfCrUrC) [ORN7007, 2′-fluoro-modified version of ORN7005]
IFN-α secretion when co-delivered with 2′3′ cGMP (TLR7 [1]): robust IFN-a induction
IFN-α secretion (TLR7 activity) (TLR7 [2]; [5]): also reduced activity
TNF-α secretion when co-delivered with 2′3′ cyclic GMP (TLR8 [4]): little to no measurable TNF-α
TNF-α secretion (TLR8 activity) (TLR8 [3]; [5]): also reduced activity

U-mC-U-mC-U-mC-U-mC-U-mC-U-mC-U-mC-U-mC-U-mC-U-C (rUmCrUmCrUmCrUmCrUmCrUmCrUmCrUmCrUmCrUrC) [ORN7006, 2′O-methyl-modified version of ORN7005]
IFN-α secretion when co-delivered with 2′3′ cGMP (TLR7 [1]): robust IFN-a induction
IFN-α secretion (TLR7 activity) (TLR7 [2]; [5]): reduced both TLR8 and TLR7 activation
TNF-α secretion when co-delivered with 2′3′ cyclic GMP (TLR8 [4]): little to no measurable TNF-α
TNF-α secretion (TLR8 activity) (TLR8 [3]; [5]): reduced both TLR8 and TLR7 activation
